{
  "source": "patent US4859658A",
  "about": "“Compound compositions with improved analgesic antipyretic and anti-inflammatory activity” (Ricerfarma S.R.L., priority 1987, dated 1989)",
  "key": {"yeast-induced fever": {"tested_on": "yeast-induced fever", "assay": "Anti-pyretic effect (yeast-induced) test in rats", "type": "in vivo, rat", "conditions": "oral gavage", "protocol": "Anti-pyretic effect of Combination of Thiocetamol with Aspirin\n(yeast-induced) test in rats\nI. TEST MATERIALS: Thioacetamol, Aspirin\n1. Fever in test animals was induced by subcutaneous\ninjection of yeast (10% in saline). Basal\nrectal temperature (BRT) was determined in all\ntest animals with the aid of a YSI thermistor probe\n2. Four hours after the yeast injection a test drug\nsuspended in 1% methyl cellulose (MC), was\nadministered by oral gavage to groups of\nmale rats (8 rats/group). Controls were\n3. Measurements of rectal temperatures (ERT) in\nresponse to the various treatments, were\ncarried out at 1, 3 and 5 hours after\nthe test drug administration.\nEvaluation of anti-pyretic activity was based on the\ntemperature difference (Δt) between BRT and ERT at\neach of the three respective test periods\nfor each treatment group.\nData was calculated by ranking Δt values obtained in\ntest drug-treated and control rats and expressed"}, "[1]": {"conditions": "single oral dose, cited from earlier work"}, "[2]": {"conditions": "cited from earlier work; for ED50: each compound alone, as reported by Maruyama Y. et al"}, "[3]": {"conditions": "cited from earlier work; for LD50: in vivo"}, "[4]": {"tested_on": "carrageenin-induced oedema", "assay": "Anti-inflammatory effect, rat paw oedema test", "type": "in vivo", "conditions": "oral gavage", "protocol": "I. TEST MATERIALS: Thioacetamol, Indomethacin (Indomet)\nThe test drugs, suspended in 1% methyl cellulose (MC),\nwere administered by oral gavage to groups of male rats\n(6 rats/group). Controls were given MC only.\n2. Three hours following the test drug administration,\n0.1 ml carrageenin (1% in saline) was injected\nsub-plantar into the right hind paw. Identically\nsaline-injected left hind paw served\n3. Readings were taken on each paw 3 hours following\ninjection of the test drug. The volume of both\nhind paws was measured with an Hg-displacement\nVolumeter (Huge, Basile, Italy).\nEvaluation of anti-inflammatory activity was based on\nthe difference in volume (ΔV) between\nthe right (carrageenin-induced oedema) and left\n(saline-control) hind paws.\nData was calculated by ranking ΔV values obtained\nin drug-treated and control rats and expressed\npercent increase over control for normal"}, "[5]": {"conditions": "in vivo, 500 mg/kg", "source_text": "It must be also pointed out that the combination of very low doses of each component is not toxic."}, "hepatic parenchyma": {"tested_on": "hepatic parenchyma", "conditions": "compared with parent paracetamol; cited from earlier work"}},
  "note": "Like-named read-outs stand apart in the source and are kept apart here.",
  "data": [
    {"smiles": "CC(=O)Oc1ccccc1C(=O)O", "note": "[Aspirin]", "values": [
      {"measurement": "Δt at 1 hour", "setting": "yeast-induced fever; 50 mg/kg", "result": 86, "unit": "%"},
      {"measurement": "Δt at 3 hour", "setting": "yeast-induced fever; 50 mg/kg", "result": 83, "unit": "%"},
      {"measurement": "Δt at 5 hour", "setting": "yeast-induced fever; 50 mg/kg", "result": 67, "unit": "%"},
      {"measurement": "Δt at 1 hour", "setting": "yeast-induced fever; 100 mg/kg", "result": 67, "unit": "%"},
      {"measurement": "Δt at 3 hour", "setting": "yeast-induced fever; 100 mg/kg", "result": 55, "unit": "%"},
      {"measurement": "Δt at 5 hour", "setting": "yeast-induced fever; 100 mg/kg", "result": 56, "unit": "%"},
      {"measurement": "Δt at 1 hour", "setting": "yeast-induced fever; 200 mg/kg", "result": 49, "unit": "%"},
      {"measurement": "Δt at 3 hour", "setting": "yeast-induced fever; 200 mg/kg", "result": 29, "unit": "%"},
      {"measurement": "Δt at 5 hour", "setting": "yeast-induced fever; 200 mg/kg", "result": 19, "unit": "%"},
      {"measurement": "Gastric lesions", "setting": "[1]; 100 mg/kg", "result": 0, "unit": "%"},
      {"measurement": "Intestinal lesions", "setting": "[1]; 100 mg/kg", "result": 0, "unit": "%"},
      {"measurement": "Gastric lesions", "setting": "[1]; 300 mg/kg", "result": 60, "unit": "%"},
      {"measurement": "Intestinal lesions", "setting": "[1]; 300 mg/kg", "result": 10, "unit": "%"},
      {"measurement": "Gastric lesions", "setting": "[1]; 600 mg/kg", "result": 100, "unit": "%"},
      {"measurement": "Intestinal lesions", "setting": "[1]; 600 mg/kg", "result": 10, "unit": "%"},
      {"measurement": "ED50", "setting": "[2]", "result": 500, "unit": "mg/kg"},
      {"measurement": "LD50", "setting": "[3]", "result": 1000, "unit": "mg/kg"}
    ]},
    {"smiles": "O=C(O)Cc1ccccc1Nc1c(Cl)cccc1Cl", "note": "[Diclofenac]", "values": [
      {"measurement": "ED50", "setting": "[2]", "result": 5, "unit": "mg/kg"}
    ]},
    {"smiles": "CC(C)Cc1ccc(C(C)C(=O)O)cc1", "note": "(stereo not drawn) [Ibuprofen]", "values": [
      {"measurement": "ED50", "setting": "[2]", "result": 60, "unit": "mg/kg"}
    ]},
    {"smiles": "COc1ccc2c(c1)c(CC(=O)O)c(C)n2C(=O)c1ccc(Cl)cc1", "note": "[Indomethacin]", "values": [
      {"measurement": "ΔV (percent over control)", "setting": "[4]; 1 mg/kg", "result": 85, "unit": "%"},
      {"measurement": "ΔV (percent over control)", "setting": "[4]; 2 mg/kg", "result": 63, "unit": "%"},
      {"measurement": "ΔV (percent over control)", "setting": "[4]; 4 mg/kg", "result": 58, "unit": "%"},
      {"measurement": "Gastric lesions", "setting": "[1]; 3 mg/kg", "result": 0, "unit": "%"},
      {"measurement": "Intestinal lesions", "setting": "[1]; 3 mg/kg", "result": 0, "unit": "%"},
      {"measurement": "Gastric lesions", "setting": "[1]; 10 mg/kg", "result": 100, "unit": "%"},
      {"measurement": "Intestinal lesions", "setting": "[1]; 10 mg/kg", "result": 30, "unit": "%"},
      {"measurement": "anti-inflammatory dose (ED50)", "setting": "[2]; as reported", "result": 3.5, "unit": "mg/kg"},
      {"measurement": "ED50", "setting": "[2]", "result": 3.6, "unit": "mg/kg"},
      {"measurement": "LD50", "setting": "[3]", "result": 15.2, "unit": "mg/kg"}
    ]},
    {"smiles": "CC(=O)Nc1ccc(OC(=O)c2cccs2)cc1", "note": "[Thiocetamol, p-acetamidophenyl thiophene-2-carboxylate]", "values": [
      {"measurement": "ΔV (percent over control)", "setting": "[4]; 150 mg/kg", "result": 90, "unit": "%"},
      {"measurement": "ΔV (percent over control)", "setting": "[4]; 300 mg/kg", "result": 70, "unit": "%"},
      {"measurement": "ΔV (percent over control)", "setting": "[4]; 600 mg/kg", "result": 62, "unit": "%"},
      {"measurement": "Δt at 1 hour", "setting": "yeast-induced fever; 75 mg/kg", "result": 86, "unit": "%"},
      {"measurement": "Δt at 3 hour", "setting": "yeast-induced fever; 75 mg/kg", "result": 91, "unit": "%"},
      {"measurement": "Δt at 5 hour", "setting": "yeast-induced fever; 75 mg/kg", "result": 91, "unit": "%"},
      {"measurement": "Δt at 1 hour", "setting": "yeast-induced fever; 150 mg/kg", "result": 47, "unit": "%"},
      {"measurement": "Δt at 3 hour", "setting": "yeast-induced fever; 150 mg/kg", "result": 96, "unit": "%"},
      {"measurement": "Δt at 5 hour", "setting": "yeast-induced fever; 150 mg/kg", "result": 84, "unit": "%"},
      {"measurement": "Δt at 1 hour", "setting": "yeast-induced fever; 300 mg/kg", "result": 26, "unit": "%"},
      {"measurement": "Δt at 3 hour", "setting": "yeast-induced fever; 300 mg/kg", "result": 40, "unit": "%"},
      {"measurement": "Δt at 5 hour", "setting": "yeast-induced fever; 300 mg/kg", "result": 61, "unit": "%"},
      {"measurement": "toxic effects", "setting": "[5]", "result": "without any toxic effects"},
      {"measurement": "toxicity towards the hepatic parenchyma", "setting": "hepatic parenchyma", "result": "remarkable lower toxicity towards the hepatic parenchyma"},
      {"measurement": "acute median lethal dose (LD50)", "setting": "[3]; compared with parent paracetamol, in words", "result": "far lower than that of the parent paracetamol"},
      {"measurement": "LD50", "setting": "[3]", "result": "around 2000 mg/kg"}
    ]}
  ]
}
